Measurements: patent publication US9018440B2, “Fluorescent mouse model” (Stowers Institute for Medical Research, priority 2006, dated 2015)

What was measured:
[1] = system: glomeruli / sensory neurons of the olfactory bulb; test: Odor stimulation of OMP-tTA-G-CaMP2 compound transgenic mice, fluorescence imaging of olfactory bulb; format: in vivo, mouse; details: for course of G-CaMP2 intensity as the activation sequence progressed: FIGS. 10E and 11E; for sequence of glomeruli activation over length of odor exposure: FIGS. 10 and 11; for subset of sensory neurons / glomeruli activated by odor: different odors alone or combined, FIGS. 9 and 12; for activation of G-CaMP2 fluorescence in glomeruli by odor: odor delivered to the nose, thinned skull, FIG. 5
Procedure: The compound transgenic mice (“transgenic mice”) containing the G-CaMP2 indicator targeted to the olfactory neurons may be used to evaluate neuron stimulation and map the signals sent in the brain. The response of sensory neurons was analyzed by stimulating transgenic mice with odor of varying concentrations. After anesthetizing mice with an injection of ketamine, the skin over the olfactory bulb was removed and the underlying skull covering the olfactory bulb was surgically thinned. The mice were then secured on an imaging plate and placed underneath a fluorescent microscope for imaging analysis. Background fluorescence was detected before odor stimulation (FIG. 5A). […] Amyl Acetate of various concentrations was also delivered to the nose of the animals using a custom made olfactometer. […] Odor delivery excited the sensory neurons, which generated action potentials that reached both olfactory bulbs.
The concentration of odor presented also activated glomeruli in a dose dependent manner (FIGS. 12C and 12D).
Animals are anesthetized with Ketamin/Xylazine cocktail and the righting reflex of the hind limbs are tested prior to surgery. Once deeply anesthetized, the hair over the head is shaved with a razor blade and a midline incision is made in the skin covering the skull to expose the olfactory bulb. For direct imaging, a head holder is glued to the bone and the animal is mounted to the microscope stage with the olfactory bulb region positioned right under the lens. (FIGS. 9 and 10). For bone thinning imaging, micro dental tools wet with saline are used to scrape the surface of the bone covering the olfactory bulb. Occasional air puffs are used to cool the thinning surface to prevent heat damage of the brain tissue. We normally stop when the bone can be indented by the gentle tough of a forceps tip, which is about 50 μm thick. The surface is then gently cleaned with saline and the head holder is attached for mounting the animal to the microscope.

[2] = system: G-protein coupled muscarinic acetylcholine receptors; test: Acetylcholine challenge of HEK 293 cells co-transfected with TetO-G-CaMP2 and CMV-VP22-tTA, G-CaMP2 fluorescence; format: cell-based, human; details: 10 μM acetylcholine, HEK 293 TetO-G-CaMP2 + CMV-VP22-tTA, excited at 488 nm
Procedure: Cells co-transfected with the two plasmids show fluorescence, while cells with only one of the plasmids, or neither, are not fluorescent (Control, FIG. 1A). The addition of 10 μM acetylcholine (ACH) induces a subpopulation of cells to respond with increases in fluorescence (FIG. 1B). Acetylcholine activates G-protein coupled muscarinic acetylcholine receptors and mobilizes intracellular calcium. Arrows point to three of the responsive cells (a, b, and c of both FIGS. 1A and 1B).
(AFU: artificial fluorescence unit).
Human embryonic kidney cells (HEK 293) were co-transfected with TetO-G-CaMP2 and a construct containing a tetracycline transactivator protein under the control of a ubiquitous promoter (CMV-VP22-tTA). […] The change in fluorescence indicated proper function of the G-CaMP2 sensor combined with the tetracycline inducible system.

Row | Structure (SMILES) | course of G-CaMP2 intensity as the activation sequence progressed [1] | sequence of glomeruli activation over length of odor exposure [1] | subset of sensory neurons / glomeruli activated by odor [1] | activation of G-CaMP2 fluorescence in glomeruli by odor [1] | further results
1 | CCCC=O [butyraldehyde] | continued to increase | sequentially activated glomeruli | activated |  | 
2 | CCCCCCCC=O [octanal] | decrease in G-CaMP2 expression | activated several different glomeruli sequentially |  | response of several glomeruli to activate G-CaMP2 fluorescence | 
3 | CC(=O)OCC[N+](C)(C)C [acetylcholine] |  |  |  |  | increase in fluorescence, cell A ([2]; FIG. 2A): approximately 90 AFU; increase in fluorescence, cell B ([2]; FIG. 2B): approximately 95 AFU; increase in fluorescence, cell C ([2]; FIG. 2C): approximately 50 AFU
4 | CCCCCOC(C)=O [amyl acetate] |  |  | activated different neurons | several glomeruli activating G-CaMP2 fluorescence | response of right and left olfactory bulbs to various odor concentrations ([1]; various concentrations, olfactometer, FIG. 6): both the right and left olfactory bulbs were similarly stimulated
5 | CCCCCC(=O)O [hexanoic acid] |  |  | activated |  | 
